This test deals with T1, FimH proteins (Escherichia coli, UniProt Q1R2J4).
T1 construct: endogenous in cells; host or cells: UPEC strain UTI89 (whole bacteria)
The test can be described thus: hemagglutination inhibition (HAI) assay: UPEC UTI89 with guinea pig red blood cells. Format: cell-based, uropathogenic Escherichia coli (UPEC) UTI89. The settings on record: read-out: HAI EC90 (minimum concentration for inhibiting hemagglutination). As to the method:
In the present example, the mannose derivatives A1 to A107 that were prepared in Examples 1 to 12 were analyzed in hemagglutination inhibition (HAI) assays to determine inhibitory effects of the compounds on the function/activity of FimH proteins.
1. Preparation of a guinea pig red blood cell solution: an adult guinea pig was anesthetized with ethyl ether, blood was sampled from the heart, placed in an EDTA blood collection tube, and centrifuged at 2,000 rpm for 5 min, serum was removed, the sample was transferred in a centrifuge tube (15 mL), sterilized PBS was added, the sample was centrifuged at 1,500 rpm for 10 min, a supernatant was removed, the sample was transferred in a centrifuge tube (50 mL), PBS was added, the sample was centrifuged at 1,500 rpm for 10 min and repeatedly washed twice, and red blood cells were slightly aspirated into a new centrifuge tube (50 mL) to obtain a 5% guinea pig red blood cell solution.
2. Preparation of a bacteria solution: a UPEC cell line UTI89 was inoculated on a medium plate and cultured in an incubator at 37° C. overnight. Single colonies were picked and inoculated in an LB medium in a sterilized conical flask, and cultured at 37° C. and 170 r/min overnight. When an OD value at 540 nm was about 0.8 on a microplate reader, the bacterial concentration was about 10^8-10^9 cfu/mL, the bacteria solution was centrifuged at 2,000 rpm for 10 min, a supernatant was removed, and 1 mL of bacteria solution was prepared into 0.1 mL of PBS bacteria solution. […] The bacteria and the medium were uniformly mixed by shaking, and reacted in an incubator at 25° C. for about 20-40 min. When the plate was read, the wells in which complete agglutination occurred were used as 4HAU for the hemagglutination titer of the bacteria. For example, if the endpoint titer of hemagglutination is 1:256, the dilution multiple of the 4HAU antigen is 1:64 (256 divided by 4). Bacteria solutions at corresponding concentrations were prepared according to the experimental results.
3. Activity assay: a compound to be tested or a standard product was placed in a 96-well microtest plate, 50 μL of drug at an initial concentration of 200 μM was placed in the first well, and from the second well, 25 μL of PBS was added to each well to dilute the drug in proportion. The drug and the medium in the first well were mixed, 25 μL of mixed drug solution was placed in the second well, the drug solution was diluted in sequence to the last well, and 25 μL of drug solution was removed. 25 μL of bacteria solution was placed in each well of the culture plate containing the diluted drug, and cultured at 37° C. for 40 min. 25 μL of 5% guinea pig red blood cell suspension was placed in each well, and slightly uniformly mixed with the drug, and the plate was placed at 4° C. for about 1 h. When results were determined, the plate was tilted 60°, and whether the red blood cells flowed like teardrops was observed.
Mannosyl proteins are expressed on the surface of red blood cells in a guinea pig, which can bind to FimH proteins of UTI89 to cause hemagglutination. It can be observed with the naked eyes that the red blood cells form film-like agglutination at the bottom of the well, and loose red dots can be seen in the center. The FimH protein inhibitor competitively binds to FimH proteins to inhibit hemagglutination. It can be observed with the naked eyes that all the red blood cells sink and concentrate at the bottom of the well to form dense dots. The minimum concentration for inhibiting hemagglutination is expressed as an EC90 value of a compound. The final concentration of the compound in the first well is 66700 nM, the concentration in the second well is half that in the first well, the concentration in the third well is half that in the second well, and so on. […] A low EC90 value indicates high activity of a compound.
In the case of `CC(C)c1cccc(C#C[C@H]2O[C@H](CO)[C@@H](O)[C@H](O)[C@@]2(O)C#Cc2ccccc2)c1` [Compound A26], the EC90 is 130 nM.
With `CC(C)Oc1cccc(C#C[C@H]2O[C@H](CO)[C@@H](O)[C@H](O)[C@@]2(O)C#Cc2ccccc2)c1` [Compound A27] the figure was 130 nM; with `OC[C@H]1O[C@H](C#Cc2cccc(C(F)(F)F)c2)[C@](O)(C#Cc2ccccc2)[C@@H](O)[C@@H]1O` [Compound A28], 260 nM.
As to `OC[C@H]1O[C@H](C#Cc2cccc3ccccc23)[C@](O)(C#Cc2ccccc2)[C@@H](O)[C@@H]1O` [Compound A29], the EC90 came to 520 nM.
Under `OC[C@H]1O[C@H](C#Cc2ccc3ccccc3c2)[C@](O)(C#Cc2ccccc2)[C@@H](O)[C@@H]1O` [Compound A30] stands 1040 nM; under `OC[C@H]1O[C@H](C#Cc2cnn(-c3ccc(OCC4CC4)cc3)c2)[C@](O)(C#CC2CC2)[C@@H](O)[C@@H]1O` [Compound A31], below 0.1 nM.
With `OC[C@H]1O[C@H](C#Cc2cccc(-c3ccccc3)c2)[C@](O)(C#Cc2ccccc2)[C@@H](O)[C@@H]1O` [Compound A32] the figure was 130 nM; with `CC(C)n1cc(C#C[C@H]2O[C@H](CO)[C@@H](O)[C@H](O)[C@@]2(O)C#Cc2ccccc2)ccc1=O` [Compound A33], 8 nM; with `Cn1cc(C#C[C@H]2O[C@H](CO)[C@@H](O)[C@H](O)[C@@]2(O)C#Cc2ccccc2)cn1` [Compound A34], 64 nM.
Under `Cn1ncc(C#C[C@H]2O[C@H](CO)[C@@H](O)[C@H](O)[C@@]2(O)C#Cc2ccccc2)c1Cl` [Compound A35] stands 520 nM; under `Cc1c(C#C[C@H]2O[C@H](CO)[C@@H](O)[C@H](O)[C@@]2(O)C#Cc2ccccc2)cnn1C` [Compound A36], 260 nM.
With `Cc1nn(C)cc1C#C[C@H]1O[C@H](CO)[C@@H](O)[C@H](O)[C@@]1(O)C#Cc1ccccc1` [Compound A38], the EC90 stood at 260 nM.
In the case of `CC(C)n1cc(C#C[C@H]2O[C@H](CO)[C@@H](O)[C@H](O)[C@@]2(O)C#Cc2ccccc2)cn1` [Compound A39], the EC90 was 8 nM.
With `CCn1cc(C#C[C@H]2O[C@H](CO)[C@@H](O)[C@H](O)[C@@]2(O)C#Cc2ccccc2)cn1` [Compound A40] the figure was 32 nM.
For `CCC(C)n1cc(C#C[C@H]2O[C@H](CO)[C@@H](O)[C@H](O)[C@@]2(O)C#Cc2ccccc2)cn1` (stereo partly drawn) [Compound A41], the EC90 is 8 nM.
With `OC[C@H]1O[C@H](C#Cc2cnn(CC3CC3)c2)[C@](O)(C#Cc2ccccc2)[C@@H](O)[C@@H]1O` [Compound A42] the figure was 4 nM; with `OC[C@H]1O[C@H](C#Cc2cnn(Cc3ccccc3)c2)[C@](O)(C#Cc2ccccc2)[C@@H](O)[C@@H]1O` [Compound A43], 32 nM; with `OC[C@H]1O[C@H](C#Cc2cnn(C3CCC3)c2)[C@](O)(C#Cc2ccccc2)[C@@H](O)[C@@H]1O` [Compound A44], 8 nM.
With `OC[C@H]1O[C@H](C#Cc2cnn(C3CCCC3)c2)[C@](O)(C#Cc2ccccc2)[C@@H](O)[C@@H]1O` [Compound A45] the figure was 1 nM; with `OC[C@H]1O[C@H](C#Cc2cnn(C3CCCCC3)c2)[C@](O)(C#Cc2ccccc2)[C@@H](O)[C@@H]1O` [Compound A46], 0.5 nM.
Under `OC[C@H]1O[C@H](C#Cc2cnn(-c3ccccc3)c2)[C@](O)(C#Cc2ccccc2)[C@@H](O)[C@@H]1O` [Compound A47] stands 0.25 nM.
`OC[C@H]1O[C@H](C#Cc2cnn(-c3ccccc3Cl)c2)[C@](O)(C#Cc2ccccc2)[C@@H](O)[C@@H]1O` [Compound A48]: the EC90 worked out at 1 nM.
For `OC[C@H]1O[C@H](C#Cc2cnn([C@H]3CCOC3)c2)[C@](O)(C#Cc2ccccc2)[C@@H](O)[C@@H]1O` [Compound A49], the EC90 was determined as 16 nM.
Under `OC[C@H]1O[C@H](C#Cc2cnn([C@@H]3CCOC3)c2)[C@](O)(C#Cc2ccccc2)[C@@H](O)[C@@H]1O` [Compound A50] stands 130 nM; under `OC[C@H]1O[C@H](C#Cc2cnn(C3CCCOC3)c2)[C@](O)(C#Cc2ccccc2)[C@@H](O)[C@@H]1O` (stereo partly drawn) [Compound A51], 16 nM.
Under `OC[C@H]1O[C@H](C#Cc2cnn(C3CCOCC3)c2)[C@](O)(C#Cc2ccccc2)[C@@H](O)[C@@H]1O` [Compound A52] stands 4 nM.
Under `OC[C@H]1O[C@H](C#Cc2cnn(C3CCC(F)(F)CC3)c2)[C@](O)(C#Cc2ccccc2)[C@@H](O)[C@@H]1O` [Compound A53] stands 8 nM; under `O=c1ccc(C#C[C@H]2O[C@H](CO)[C@@H](O)[C@H](O)[C@@]2(O)C#Cc2ccccc2)cn1C1CCCCC1` [Compound A54], 4 nM; under `O=c1ccc(C#C[C@H]2O[C@H](CO)[C@@H](O)[C@H](O)[C@@]2(O)C#Cc2ccccc2)cn1-c1ccccc1` [Compound A55], 64 nM.
Consider `CCC(C)O[C@H]1O[C@H](CO)[C@@H](O)[C@H](O)[C@@]1(O)C#Cc1ccc(F)cc1` (stereo partly drawn) [Compound A56], for which the EC90 is 520 nM.
With `CCC(C)O[C@H]1O[C@H](CO)[C@@H](O)[C@H](O)[C@@]1(O)C#Cc1cccc(Cl)c1` (stereo partly drawn) [Compound A57] the figure was 260 nM; with `CCC(C)O[C@H]1O[C@H](CO)[C@@H](O)[C@H](O)[C@@]1(O)C#Cc1cccc(OC)c1` (stereo partly drawn) [Compound A58], 520 nM; with `OC[C@H]1O[C@H](C#Cc2cnn(C3CCCCC3)c2)[C@](O)(C#CC2CC2)[C@@H](O)[C@@H]1O` [Compound A59], 4 nM.
Under `CO[C@H]1CC[C@H](n2cc(C#C[C@H]3O[C@H](CO)[C@@H](O)[C@H](O)[C@@]3(O)C#Cc3ccccc3)cn2)CC1` [Compound A60] stands 2 nM; under `OC[C@H]1O[C@H](C#Cc2cnn([C@@H]3C[C@H]4C[C@H]4C3)c2)[C@](O)(C#Cc2ccccc2)[C@@H](O)[C@@H]1O` [Compound A61], 8 nM.
`OC[C@H]1O[C@H](C#Cc2cnn([C@H]3C[C@H]4C[C@H]4C3)c2)[C@](O)(C#Cc2ccccc2)[C@@H](O)[C@@H]1O` [Compound A62]: the EC90 was 0.5 nM.
With `CC(n1cc(C#C[C@H]2O[C@H](CO)[C@@H](O)[C@H](O)[C@@]2(O)C#Cc2ccccc2)cn1)C(F)(F)F` (stereo partly drawn) [Compound A63] the figure was 16 nM; with `OC[C@H]1O[C@H](C#Cc2cnn(-c3ncccc3Cl)c2)[C@](O)(C#Cc2ccccc2)[C@@H](O)[C@@H]1O` [Compound A64], 4 nM; with `N#Cc1ccccc1-n1cc(C#C[C@H]2O[C@H](CO)[C@@H](O)[C@H](O)[C@@]2(O)C#Cc2ccccc2)cn1` [Compound A65], 64 nM.
Turning to `OC[C@H]1O[C@H](C#Cc2cnn(-c3cccc(Cl)c3)c2)[C@](O)(C#Cc2ccccc2)[C@@H](O)[C@@H]1O` [Compound A66], the EC90 stood at 0.13 nM.
Under `OC[C@H]1O[C@H](C#Cc2cnn(-c3ccc(Cl)cc3)c2)[C@](O)(C#Cc2ccccc2)[C@@H](O)[C@@H]1O` [Compound A67] stands 0.13 nM; under `OC[C@H]1O[C@H](C#Cc2cnn(-c3ccc(F)cc3)c2)[C@](O)(C#Cc2ccccc2)[C@@H](O)[C@@H]1O` [Compound A68], 8 nM; under `OC[C@H]1O[C@H](C#Cc2cnn(C3CCCCC3O)c2)[C@](O)(C#Cc2ccccc2)[C@@H](O)[C@@H]1O` (stereo partly drawn) [Compound A69], 16 nM.
Under `OC[C@H]1O[C@H](C#Cc2cnn(-c3ccccc3Cl)c2)[C@](O)(C#CC2CC2)[C@@H](O)[C@@H]1O` [Compound A70] stands 8 nM; under `COc1cnc(-n2cc(C#C[C@H]3O[C@H](CO)[C@@H](O)[C@H](O)[C@@]3(O)C#Cc3cnn(C)c3)cn2)nc1` [Compound A71], 8 nM.

Values taken from patent publication US11964996B2, “2-alkynylmannose derivative and application thereof” (priority 2020, dated 2024).
